{
  "source": "paper PMC3507590",
  "about": "(Diabetes Care, 2012)",
  "key": {"[1]": {"settings": "for detectability / plasma concentration after s.c. glargine: any dose (0.3-1.2 units/kg), any time point 3-30 h, LLOQ 33 pmol/L"}, "IGF-1 receptor (IGF-1R)": {"test_system": "IGF-1 receptor (IGF-1R)", "settings": "cited from earlier work; for affinity for IGF-1 receptor versus human insulin: as stated in the abstract"}, "[2]": {"test_system": "malignant cell lines expressing primarily IGF-1R", "settings": "cited from earlier work"}, "animals": {"test_system": "animals", "settings": "in vivo in animals; cited from earlier work"}, "[3]": {"test_system": "insulin/IGF-1 hybrid receptors", "settings": "in vitro; ref Pierre-Eugene et al., PLoS One 2012;7:e41992; cited from earlier work"}, "MCF-7 cells": {"test_system": "MCF-7 cells", "settings": "ref Pierre-Eugene et al., PLoS One 2012;7:e41992; cited from earlier work"}, "[4]": {"settings": "in vitro, 37°C, mass spectrometry; cited from earlier work"}, "[5]": {"test_system": "subjects with type 1 and type 2 diabetes", "settings": "after multiple dosing; cited from earlier work"}, "[6]": {"settings": "acidic pH; precipitates amorphously upon s.c. injection; cited from earlier work"}, "[7]": {"settings": "in vitro; cited from earlier work"}, "insulin receptors (IR)": {"test_system": "insulin receptors (IR)", "settings": "cited from earlier work"}},
  "note": "Like-named read-outs stand apart in the source and are kept apart here.",
  "data": [
    {"substance": "21^A-Gly-31^B-Arg-32^B-Arg-human insulin [glargine, reference compound]", "values": [
      {"measurement": "detectability / plasma concentration after s.c. glargine", "setting": "[1]", "result": "nearly always fall below LLOQ"},
      {"measurement": "detectability / plasma concentration after s.c. glargine", "setting": "[1]; listed as Glargine", "result": "detectable in only one-third of subjects"},
      {"measurement": "affinity for IGF-1 receptor versus human insulin", "setting": "IGF-1 receptor (IGF-1R); in vitro", "result": "slightly higher affinity"},
      {"measurement": "binding affinity for IGF-1R compared with human insulin", "setting": "IGF-1 receptor (IGF-1R); in vitro", "result": "greater binding affinity"},
      {"measurement": "potency on DNA synthesis (mitogenic effects) compared with human insulin", "setting": "[2]; in vitro, malignant cell lines expressing primarily IGF-1R", "result": "greater potency"},
      {"measurement": "tumor growth promotion", "setting": "animals", "result": "does not promote tumor growth"},
      {"measurement": "potency for stimulation of insulin/IGF-1 hybrid receptors versus human insulin", "setting": "[3]", "result": "higher potency"},
      {"measurement": "proliferative/antiapoptotic effects versus human insulin", "setting": "MCF-7 cells", "result": "greater proliferative/antiapoptotic effects"},
      {"measurement": "time for quantitative degradation into M1 in human serum", "setting": "[4]", "result": "≤ 1", "unit": "h"},
      {"measurement": "duration of action", "setting": "[5]", "result": "> 24", "unit": "h"},
      {"measurement": "solubility", "setting": "[6]", "result": "Soluble at acidic pH"}
    ]},
    {"substance": "31^B-Arg-32^B-Arg-human insulin [reference compound]", "values": [
      {"measurement": "IGF-1R affinity compared with glargine", "setting": "IGF-1 receptor (IGF-1R); in vitro", "result": "even greater IGF-1R affinity"}
    ]},
    {"substance": "21^A-Gly-human insulin [M1]", "values": [
      {"measurement": "time of maximum plasma concentrations after subcutaneous injection of glargine", "setting": "[1]; M1 PK profile, doses 0.3, 0.6, 1.2 units/kg", "result": "~12", "unit": "h"},
      {"measurement": "plasma concentration by 30 h versus baseline", "setting": "[1]; doses >0.3 units/kg", "result": "still elevated over baseline"},
      {"measurement": "affinity for IGF-1 receptor versus human insulin", "setting": "IGF-1 receptor (IGF-1R); in vitro", "result": "lower affinity"},
      {"measurement": "affinity for IGF-1R compared with glargine, and even with human insulin", "setting": "IGF-1 receptor (IGF-1R); in vitro", "result": "lower affinity"},
      {"measurement": "mitogenic potential in vitro compared with glargine, and even with human insulin", "setting": "[2]", "result": "lower mitogenic potential"},
      {"measurement": "metabolic properties relative to human insulin", "setting": "[7]", "result": "fully retaining its metabolic properties"},
      {"measurement": "potency for stimulation of insulin/IGF-1 hybrid receptors versus human insulin", "setting": "[3]", "result": "lower potency"}
    ]},
    {"substance": "21^A-Gly-des-30^B-Thr-human insulin [M2]", "values": [
      {"measurement": "time of first appearance in plasma", "setting": "[1]; after s.c. glargine, associated with high M1 concentration", "result": "first appeared after 12 h"},
      {"measurement": "affinity for IGF-1 receptor versus human insulin", "setting": "IGF-1 receptor (IGF-1R); in vitro", "result": "lower affinity"},
      {"measurement": "affinity for IGF-1R compared with glargine, and even with human insulin", "setting": "IGF-1 receptor (IGF-1R); in vitro", "result": "lower affinity"},
      {"measurement": "mitogenic potential in vitro compared with glargine, and even with human insulin", "setting": "[2]", "result": "lower mitogenic potential"},
      {"measurement": "metabolic properties relative to human insulin", "setting": "[7]", "result": "fully retaining its metabolic properties"},
      {"measurement": "potency for stimulation of insulin/IGF-1 hybrid receptors versus human insulin", "setting": "[3]", "result": "lower potency"}
    ]},
    {"substance": "10^B-Asp-human insulin [X10, reference compound]", "values": [
      {"measurement": "affinity for IGF-1R", "setting": "IGF-1 receptor (IGF-1R)", "result": "greater affinity"},
      {"measurement": "affinity for IR", "setting": "insulin receptors (IR)", "result": "greater affinity"}
    ]}
  ]
}
